Assay results: patent US10799494B2, “Combination of respiratory electron transport chain inhibitors with a cytochrome bd inhibitor” (priority 2015, dated 2020)
Several values for one entry are separate records, joined by “and”; a condition that tells them apart may be missing. Equal values may be shown once.

Assays:
[1] = tested on: M. tuberculosis H37Rv; assay: M. tuberculosis H37Rv growth inhibition screen at fixed 5 μM; assay type: cell-based, Mycobacterium tuberculosis; details: Mycobacterium tuberculosis, H37RV; aerobic; 5 μM compound; read-out: Growth of M. tuberculosis H37Rv (aerobic) at 5 μM of [compounds]
[2] = molecular target: bovine cytochrome bc1 (Bos taurus (Bovine), UniProt P00157); assay: Bovine cytochrome bc1 inhibition (cytochrome c reduction, Keilin-Hartree particles); assay type: biochemical
Chain of bovine cytochrome bc1 (P00157 whole entry, looked up): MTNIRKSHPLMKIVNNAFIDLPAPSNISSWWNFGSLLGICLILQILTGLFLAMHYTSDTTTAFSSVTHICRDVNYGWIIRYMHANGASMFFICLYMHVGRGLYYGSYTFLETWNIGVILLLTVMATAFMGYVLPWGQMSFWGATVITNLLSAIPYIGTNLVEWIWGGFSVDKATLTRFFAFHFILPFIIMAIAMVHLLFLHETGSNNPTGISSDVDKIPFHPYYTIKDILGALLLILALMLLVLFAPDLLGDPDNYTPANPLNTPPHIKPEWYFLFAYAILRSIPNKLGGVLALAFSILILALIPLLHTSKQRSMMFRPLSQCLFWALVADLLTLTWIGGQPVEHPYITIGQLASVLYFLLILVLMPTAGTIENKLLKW

[3] = tested on: HepG2 cell line; assay: Human cell counter screen (HepG2) cellular toxicity
[4] = molecular target: M. tuberculosis cytochrome bd-I (Mycobacterium tuberculosis, UniProt L7N662); assay type: biochemical
Chain of M. tuberculosis cytochrome bd-I (L7N662 1-485): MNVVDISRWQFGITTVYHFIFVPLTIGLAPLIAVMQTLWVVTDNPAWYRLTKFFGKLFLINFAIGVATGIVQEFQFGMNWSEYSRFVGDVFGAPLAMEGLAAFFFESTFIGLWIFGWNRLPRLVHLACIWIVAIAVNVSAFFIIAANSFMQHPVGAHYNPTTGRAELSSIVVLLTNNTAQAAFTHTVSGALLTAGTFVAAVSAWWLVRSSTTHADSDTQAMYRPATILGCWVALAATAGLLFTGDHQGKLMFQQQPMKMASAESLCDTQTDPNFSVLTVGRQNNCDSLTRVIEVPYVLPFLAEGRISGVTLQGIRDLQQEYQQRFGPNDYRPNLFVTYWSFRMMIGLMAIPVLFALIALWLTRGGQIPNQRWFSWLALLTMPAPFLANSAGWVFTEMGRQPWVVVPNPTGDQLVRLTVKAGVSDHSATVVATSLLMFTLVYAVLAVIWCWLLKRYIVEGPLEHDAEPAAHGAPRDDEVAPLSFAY

[5] = tested on: Mycobacterium tuberculosis (Mtb) H37Rv; assay: MGIT growth inhibition assay, time to positivity; assay type: cell-based
[6] = 9/79 vs placebo 2/81, […]; cited from earlier work
[7] = tested on: COc1c(O)c(C)c(C/C=C(\C)CCC=C(C)C)c(O)c1OC; assay: cells, lysate or membranes named; details: pH 7.5
[8] = tested on: COc1c(O)c(C)c(CC=C(C)C)c(O)c1OC; assay: cells, lysate or membranes named; details: pH 7.5
[9] = tested on: Mtb H37Rv; assay: In vitro (replicating) Mtb growth inhibition, microplate Alamar blue assay; assay type: cell-based, Mycobacterium tuberculosis
[10] = Table 8, WDH-2G-6 3 μM, MTC420 5.5 μM, lansoprazole sulphide 26.5 μM, TMC207 250 nM, media control 10

Row | Compound | activity at 5 µM [1] [%] | IC50 [2] [nM] | HepG2 [3] [µM] | other results
1 | Cc1c(-c2ccc(-c3ccc(OC(F)(F)F)cc3)nc2)[nH]c2ccccc2c1=O [SL-2-25, 3-Methyl-2-(6-(4-(trifluoromethoxy)phenyl)pyridin-3-yl)quinolin-4(1H)-one] | 88.9 | 890 | >50 | –
2 | O=c1cc(-c2ccc(Cc3ccc(OC(F)(F)F)cc3)cc2)[nH]c2ccccc12 [RKA-70, 2-(4-(4-(Trifluoromethoxy)benzyl)phenyl)quinolin-4(1H)-one] | 100 | 310 | >50 | –
3 | Cc1c(-c2ccc(Cc3ccccc3)cc2)[nH]c2ccccc2c1=O [CK-2-88, 2-(4-Benzylphenyl)-3-methylquinolin-4(1H)-one] | 90.5 | 340 | >100 | inhibition @ 1 uM (% of cntls) [4]: 87.5 % of cntls
4 | COc1nc2ccc(Br)cc2cc1[C@@H](c1ccccc1)[C@@](O)(CCN(C)C)c1cccc2ccccc12 [TMC 207, bedaquiline] | – | – | – | Time to Positivity ([5]; Table 7 / FIG. 9, compounds at 5x IC90, 7.5×10^5 Mtb cells per tube, drug free control 8, followed to 80 days): 12 days; Time to Positivity [5, 10]: 13 days; death in treatment group [6]: 11.4%
5 | recombinant M. tuberculosis bd-I (Mycobacterium tuberculosis H37Rv) | – | – | – | Km [7]: 65.21 ± 15.31 µM and 65.2 ± 15.3 µM; Km [8]: 51.55 ± 8.9 µM and 51.6 ± 8.9 µM and 51.8 ± 6.1 µM
6 | Cc1c(-c2ccc(Cc3ccc(F)cc3)cc2)[nH]c2ccccc2c1=O [LT-9, 2-(4-(4-Fluorobenzyl)phenyl)-3-methylquinolin-4(1H)-one] | 34.7 | – | >50 | –
7 | Cc1c(-c2ccc(N3CCC(F)(F)C3)cc2)[nH]c2cc(F)cc(F)c2c1=O [MTC420] | – | – | – | IC50 [9]: 520 nM; Time to positivity / outgrowth of Mtb in MGITs ([5]; FIG. 3, repeated 3 times): 11 to 13 days; Time to Positivity ([5]; Table 6, compounds at 5x IC90, drug free control 11, followed to 74 days): 18 days; Time to Positivity [5, 10]: 13 days
